Twelve compounds from PubChem BioAssay (NCI) can be followed below.

Holding throughout (assay): NCI anticancer screen, dose series, 48 h
Experiment [1] deals with EKVX NSCLC.
Experiment [2] deals with M14 melanoma.
Experiment [3] deals with NCI-H23 lung.
For experiment [4], the system named is NCI/ADR-RES ovarian.
In experiment [5] the test system is OVCAR-4 ovarian.
For experiment [6], the system named is PC-3 prostate.
The test system of experiment [7] is SF-268 CNS.
Experiment [8] concerns SK-MEL-28 melanoma.
Experiment [9] has as its system SK-OV-3 ovarian.
For experiment [10], the system named is SW-620 colon.

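Each compound was tested at five concentrations against cells in 96-well plates for 48 hours. The concentration for 50% growth inhibition is given as GI50. TGI denotes the concentration required for complete inhibition of growth.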

Regarding `Cn1cc(-c2cc(-c3cn(C)c4ccc(Cl)cc34)[nH]n2)c2cc(Cl)ccc21`, the GI50 in experiment [1] was 3.15 µM; in experiment [2], 2.15 µM; in experiment [3] it was 2.48 µM; in experiment [4] it was 2.25 µM; in experiment [5], 5.82 µM; in experiment [6], 3.05 µM. Also, the GI50 in experiment [7] is 5.29 µM; in experiment [8], 4.8 µM; in experiment [9] it was 5.81 µM; in experiment [10], 3.52 µM. Further, the TGI turned out to be 15 µM in [1]; 5.3 µM in [2]; 7.69 µM in experiment [3]; 6.59 µM in experiment [4]; 28.4 µM in experiment [5]; 14.2 µM in [6]. For the same compound, the TGI in [7] was 44.4 µM; in [8], 79.6 µM; in experiment [9] it was over 100 µM; in experiment [10], 14.6 µM.
Turning to `COc1ccc2c(c1)CN([C@@H](C)[C@H]1CC[C@H]3[C@@H]4CC[C@H]5C[C@@H](O)CC[C@]5(C)[C@H]4CC[C@]13C)CO2`, the TGI in experiment [1] was found to be 14.7 µM; in experiment [2], 3.54 µM; in [3], 5.12 µM; in experiment [4] it was 18.6 µM; in experiment [5], 17.8 µM; in experiment [6] it was 7.46 µM. Further, the TGI is 7.38 µM in experiment [7], 5.98 µM in [8], 3.56 µM in experiment [9] and over 23.6 µM in experiment [10].
For the compound `CC(NC(=O)Cc1ccc(C(F)(F)P(=O)(OCc2ccc([N+](=O)[O-])o2)N(C)CCCCCl)cc1)c1ccc(OCC2CCCCC2)c(C(N)=O)c1` (stereo unspecified), the GI50 in experiment [1] is 4.92 µM; in experiment [2] it was 0.398 µM; in experiment [3], 4.11 µM; in experiment [4], 6.51 µM; in experiment [5], 3.33 µM; in [6] it was 6.91 µM. The GI50 is 4.8 µM in [7], 12.2 µM in experiment [8], 19.3 µM in experiment [9] and 6.82 µM in experiment [10]. The TGI in [1] is 16.7 µM; in experiment [2] it was 1.99 µM; in experiment [3] it was 15.3 µM; in experiment [4], over 93.4 µM; in experiment [5], 12 µM; in experiment [6] it was over 34.8 µM. Also, the TGI turned out to be 15.5 µM in [7], 25.9 µM in experiment [8], 43.5 µM in experiment [9] and 15.8 µM in [10].
For the compound `CCCC1(CN2c3ccccc3Sc3ccc(Cl)cc32)CCN(CC)C1` (stereo unspecified), the GI50 in [1] is 1.77 µM; in [2], 1.86 µM; in [3], 1.75 µM; in experiment [4], 1.68 µM; in experiment [5], 1.75 µM; in [6], 1.68 µM. Also, the GI50 in [7] is 1.86 µM; in [8], 1.92 µM; in experiment [9] it was 1.77 µM; in experiment [10], 1.7 µM. In addition, the TGI in experiment [1] worked out at 3.55 µM; in experiment [2] it was 3.49 µM; in experiment [3], 3.55 µM; in experiment [4], 3.36 µM; in experiment [5], 3.39 µM; in [6], 3.38 µM. The TGI in experiment [7] worked out at 3.88 µM; in [8], 3.48 µM; in experiment [9], 3.45 µM; in experiment [10] it was 3.31 µM.
On to `CCCCCCCCCc1ccc(OCCOCCOCCOCCOCCOCCOCCOCCOCCO)cc1`, for which the GI50 is 0.452 µM in [1]; 0.892 µM in [2]; 0.257 µM in experiment [3]; 0.268 µM in experiment [4]; 0.131 µM in [5]; 0.0898 µM in experiment [6]. For the same compound, the GI50 in [7] is 0.685 µM; in experiment [8], 0.895 µM; in experiment [9], 0.991 µM; in [10] it was 1.19 µM. Further, the TGI was 5.78 µM in experiment [1]; 2.13 µM in experiment [2]; 3.26 µM in experiment [3]; 3.94 µM in [4]; 5.04 µM in experiment [5]; 1.18 µM in experiment [6]. Moreover, the TGI is 3.37 µM in experiment [7], 2.02 µM in experiment [8], 2.45 µM in [9] and 5.55 µM in experiment [10].
On to `C=C1C(=O)O[C@H]2[C@H]1CC/C(COC(=O)N[C@H]1C[C@H](O[C@H]3C[C@](O)(C(=O)CO)Cc4c(O)c5c(c(O)c43)C(=O)c3c(OC)cccc3C5=O)O[C@@H](C)[C@H]1O)=C\CC[C@@]1(C)O[C@@H]21`, for which the GI50 in experiment [1] was 23.3 µM; in experiment [2], 8.36 µM; in [3], 8.36 µM; in experiment [4] it was over 50 µM; in experiment [5], 3.47 µM; in experiment [6], 7.8 µM. Also, the GI50 was 6.72 µM in experiment [7], 1.51 µM in [8], over 50 µM in [9] and 1.15 µM in [10]. In addition, the TGI is over 50 µM in experiment [1]; 22.5 µM in experiment [2]; 18.6 µM in experiment [3]; over 50 µM in [4]; 12.3 µM in [5]; 30.8 µM in experiment [6]. For the same compound, the TGI in experiment [7] was 24.6 µM; in experiment [8], 4.67 µM; in [9], over 50 µM; in experiment [10], 3 µM.
On to `O=C1c2cccnc2-c2nc(-c3cccnc3)cc3c2c1nc1ccccc13`, for which the GI50 in experiment [1] is 10.6 µM; in experiment [2] it was 1.93 µM; in experiment [3], 3.7 µM; in experiment [4], 3.12 µM; in experiment [5], 5.07 µM; in experiment [6], 4.4 µM. In addition, the GI50 was 3.73 µM in experiment [7], 20.5 µM in experiment [8], 15.3 µM in experiment [9] and 2.28 µM in [10]. Further, the TGI in experiment [1] is 32.7 µM; in experiment [2], 3.51 µM; in experiment [3], 20.7 µM; in experiment [4] it was over 23.9 µM; in experiment [5] it was 19.8 µM; in experiment [6], 26.7 µM. Moreover, the TGI in [7] was over 26.5 µM; in experiment [8], 59 µM; in [9], 29.8 µM; in experiment [10], 5.63 µM.
For `Nc1nc(N)c2cc(Sc3ccc4ccccc4c3)ccc2n1`, the TGI in experiment [1] was determined as 14.5 µM; in [2], 2.88 µM; in [3] it was 10.2 µM; in [4] it was 4.35 µM; in experiment [5] it was 5.26 µM; in experiment [6], 6.12 µM. The TGI in experiment [7] turned out to be 4.19 µM; in experiment [8], 2.9 µM; in [9] it was 17.5 µM; in [10], 1.91 µM. Moreover, in [8], the GI50 was 1.54 µM.
With `O=[N+]([O-])c1cc([As](Br)c2ccc(O)c([N+](=O)[O-])c2)ccc1O`, the TGI was 3.86 µM in experiment [1]; 4.33 µM in experiment [2]; 4.37 µM in experiment [3]; 8.81 µM in experiment [4]; 3.28 µM in experiment [5]; 3.64 µM in experiment [6]. The TGI came to 5.59 µM in experiment [7], 3.31 µM in experiment [8], 9.71 µM in [9] and 3.56 µM in experiment [10].
For `c1ccc(-c2nc3n(c2-c2ccc4c(c2)OCO4)CCC3)nc1`, the GI50 in [1] was 5.2 µM; in [2], 6.77 µM; in [3], 9.59 µM; in experiment [4], 0.573 µM; in experiment [5], 2.41 µM; in [6], 6.75 µM. The GI50 was 7.86 µM in experiment [7], 9.29 µM in experiment [8], 4.54 µM in [9] and 8.47 µM in experiment [10]. In addition, the TGI in experiment [1] was over 25 µM; in experiment [2], over 20.3 µM; in [3], over 25 µM; in [4], 9.59 µM; in [5], 15.8 µM; in experiment [6], over 25 µM. For the same compound, the TGI in experiment [7] is over 25 µM; in experiment [8], over 22.8 µM; in experiment [9] it was 14.7 µM; in experiment [10], over 25 µM.
As for `O=C1/C(=C\c2ccco2)Oc2ccccc21`, the TGI in experiment [1], in [2], in [3], in experiment [4], in experiment [5] and in experiment [6] was over 100 µM each time. Further, the TGI in experiment [7], in experiment [8], in experiment [9] and in experiment [10] was over 100 µM throughout.
`Clc1ccc(/C=C/c2ccc3ccccc3n2)cc1`: the GI50 was 2.79 µM in experiment [1]; 0.298 µM in experiment [2]; 3.08 µM in experiment [3]; 6.27 µM in [4]; over 69.8 µM in [5]; 1.74 µM in [6]. Moreover, the GI50 was 0.641 µM in [7], 3.18 µM in experiment [8], 0.519 µM in [9] and 0.553 µM in experiment [10]. The TGI in experiment [1] was over 100 µM; in experiment [2], 1.01 µM; in experiment [3], over 100 µM; in experiment [4], 29.4 µM; in experiment [5] it was over 100 µM; in experiment [6], over 100 µM. Also, the TGI was over 88.3 µM in [7], over 100 µM in experiment [8], over 21 µM in experiment [9] and over 100 µM in experiment [10].
